Data as given in patent US20070238761A1, “Use of pyridoxamine to treat and/or prevent disease processes” (Vanderbilt University, priority 2005, published 2007).

Columns and labels:
[1] = system: gentamicin and glycerol rat models of ARF; test: Gentamicin and glycerol rat models of ARF treated with PM; assay type: in vivo, Sprague-Dawley rats; settings: ARF+PM group compared to ARF group; PM 180 mg/day/kg body weight in drinking water
Description: The gentamicin and the glycerol rat models of ARF. There are several animal models of ARF, each having its specific advantages and limitations (see e.g., Bellomo et al. (2004) Group Crit Care 8:R204-12). Two such models are the gentamicin and the glycerol models. […] Importantly, the gentamicin and the glycerol models are highly relevant, representing two of the major clinical causes of ARF: antibiotic toxicity and rhabdomyolosis, respectively (Bellomo et al. (2004) Group Crit Care 8:R204-12). Examining the effects of PM in two different models also helps to minimize possible model-specific adverse effects.
The primary outcome measured is serum creatinine level at the end of PM treatment. […]
Two-month-old male Sprague-Dawley rats (250-300 g) are housed individually in metabolic cages. […] Animals are fed standard powdered stock ration, and their body weights are monitored daily. […]
For PM experiments, rats are randomized into 4 groups based on their baseline serum creatinine levels: (a) the Control group (no ARF is induced); (b) the PM group (no ARF is induced, but PM is given in drinking water); (c) the ARF group; and (d) the ARF+PM group. The experiment is terminated when the serum creatinine in the ARF group reaches its maximum level as determined in the model optimization studies described hereinabove. […]

[2] = system: Human glomerular visceral epithelial cells (podocytes); test: Cisplatin-induced podocyte cell death, viability by Rapid Cell Proliferation Kit; assay type: cell-based; settings: 22 hours of treatment; RPMI medium with 1% FBS; FIG. 4
Method: Human glomerular visceral epithelial cells (podocytes) were plated at 8,000 cells/well (96-well plate) and incubated for 24 hours in RPMI medium supplemented with 1% FBS. Following this incubation cells were treated as indicated without changing the medium. The treatment continued for 22 hours and cell viability was measured using Rapid Cell Proliferation Kit (CALBIOCHEM®), a unit of EMD Biosciences, Inc. San Diego, Calif., United States of America).

[3] = Reactive PM amino groups in incubations with ethylene glycol (TNBS assay); assay type: physicochemical; settings: 24 hours at room temperature
Method: Effect of pyridoxamine treatment on urinary oxalate excretion. […] With the proposed experimental design, interference between PM and ethylene glycol might have been possible because both were administered in drinking water. If significant spontaneous oxidation of ethylene glycol occurs in solution, the resulting carbonyl moieties might react with the PM amino group. To address this question, the amount of reactive PM amino groups was measured in incubations with ethylene glycol using TNBS assay (Spadaro et al. (1979) Anal Biochem 96:317-321).

[4] = system: diabetic rat model; settings: similar or higher PM doses than 180 mg/day/kg body wt.; long-term; Degenhardt et al. 2002, Stitt et al. 2002; cited from earlier work
[5] = system: 8-F2-isoprostane (8-iso-PGF2) in the kidney; test: Carbon tetrachloride rat model of oxidative stress, 8-F2-isoprostane in kidney by GC-MS; assay type: in vivo; settings: CCl4 vs. CCl4+PM, p=0.066, not statistically significant; FIG. 5
Method: FIG. 5 is a plot depicting the effect of PM administration on the levels of a marker of oxidative stress (8-F2-lsoP) in the carbon tetrachloride (CCl4) rat model disclosed herein as determined by gas-chromatography/mass-spectrometry (GC-MS).
Based on the results of the in vitro experiments disclosed herein, it was hypothesized that PM might reduce oxidative stress in the kidney in vivo. This hypothesis was evaluated using the carbon tetrachloride rat model of oxidative stress (see Kadiiska et al. (2005) Free Radic Biol Med 38:698-710). The effect of PM was determined by measuring the levels of an oxidative stress marker, 8-F2-isoprostane (8-iso-PGF2) in the kidney using gas-chromatography/mass-spectrometry (see Morrow et al. (1999) Methods Enzymol 300:3-12).

[6] = system: urinary oxalate excretion; test: Ethylene glycol rat model of experimental hyperoxaluria with PM in drinking water; assay type: in vivo, Sprague-Dawley male rats
Method: FIGS. 6A and 6B are graphs depicting the effect of PM treatment on urinary oxalate excretion in animals with experimental hyperoxalura. Sprague-Dawley male rats (49-52 days old) were randomized on Day 1 to receive either ethylene glycol (0.75% v/v in drinking water (450 mg/day/kg body wt.); EG group) or no treatment (Control group). After Day 14, animals within each group were pair-matched according to their oxalate level. One member of each pair was then randomly assigned to receive PM (3 mg/ml or 180 mg/day/kg body wt.) either in drinking water (PM group) or in 0.75% ethylene glycol (EG+PM group). Urine samples were collected under toluene (to inhibit bacteria growth) in 50 ml tubes with hydrochloric acid to minimize spontaneous breakdown of urinary ascorbic acid to oxalate. Urinary oxalate was measured as described under Methods. Each symbol represents mean value±S.E. (n=5); at the time points indicated by asterisks, differences between the EG group and the EG+PM group were statistically significant (p<0.05). The data points on the graphs correspond to the following: ●—Control group; ▪—EG group; —PM group; ⋄—+EG+PM group.
In FIG. 6A, the results of PM given continuously starting from Day 14 are presented.
In FIG. 6B, the results for a separate experiment in which PM treatment was started on Day 14 and was discontinued on Day 28 are presented. In this experiment, the elevated levels of oxalate excretion in Control group on Day 3 are most likely related to animal adaptation. Note that the oxalate levels went down and leveled off before the beginning of PM treatment.
Ethylene glycol model of hyperoxaluria and pyridoxamine treatment. An established rat model of experimental hyperoxaluria, the ethylene glycol (EG) model (see e.g., Lyon et al. (1996) Invest Uro14:143-151; Khan (1997) World J Urol 05:236-243) was employed. […] Because ethylene glycol is converted to glycolaldehyde, an intermediate in glyoxylate pathway, its administration results in increased urinary oxalate levels (Lyon et al. (1996) Invest Urol 4:143-151; Khan (1997) World J Urol 05:236-243). […]
For uniform administration of EG and PM, water supply to all animals was limited to 45 ml/day. […] The length of treatment was determined based on the fact that after about 35 days of experimental hyperoxaluria rats may have some evidence of microscopic nephrolithiasis, but their renal function remains normal (Khan (1997) World J Urol 05:236-243). […]

[7] = system: BSA-Amadori glycation intermediate; test: Conversion of BSA-Amadori glycation intermediate to CML, measured with anti-CML antibody; assay type: biochemical; settings: 0.1, 1, 15 mM PM; 200 mM sodium phosphate buffer, pH 7.5, 37° C.; FIG. 1A
Method: FIG. 1A is a graph depicting the conversion of Amadori intermediate to CML measured using anti-CML antibody.
Isolated BSA-Amadori glycation intermediate was formed at diabetic (30 mM) concentration of glucose. The conversion of Amadori intermediate to the AGE N^ε-carboxymethyllysine (CML) was measured using an anti-CML antibody.

[8] = system: collagen IV; test: Formation of CML on collagen IV coated plates incubated with glucose (ELISA, anti-CML antibody); assay type: biochemical; settings: 5 mM and 30 mM glucose; 200 mM sodium phosphate buffer, pH 7.5, 37° C., 40 days; FIG. 1B
Method: The secondary antibody used in the assay was an alkaline phosphatase conjugated goat anti-rabbit IgG from Sigma-Aldrich Co. (St. Louis, Mo., United States of America). Incubations were carried out in 200 mM sodium phosphate buffer, pH 7.5 at 37° C. for 40 days. […]

SMILES: Cc1ncc(CO)c(CN)c1O [PM, 4-(aminomethyl)-5-(hydroxymethyl)-2-methyl-pyridin-3-ol]
- Creatinine levels at the end of experiment (primary outcome) [1]: envisioned to be significantly lower
- degree of renal tubular pathology at the end of experiment (secondary outcome) [1]: envisioned to be lower
- podocyte viability under cisplatin treatment [2]: protected cell viability in a concentration-dependent manner
- change in reactive PM amino groups in incubations with ethylene glycol [3]: No change in amino groups was detected
- therapeutic effect [4]: had therapeutic effects
- level of the isoprostane marker (8-F2-isoprostane) in the kidney [5]: tendency toward lowering the level of the isoprostane marker
- urinary oxalate excretion ([6]; EG+PM group vs EG group, PM 180 mg/day/kg body wt. in drinking water continuously from Day 14, FIG. 6A): dramatic and sustained decrease in urinary oxalate excretion
- urinary oxalate excretion after PM was discontinued ([6]; PM started Day 14, discontinued Day 28, FIG. 6B): increase in urinary oxalate excretion to the levels found in untreated hyperoxaluric animals
- weight gain ([6]; all experimental groups, duration of the experiment, PM 180 mg/day/kg body wt.): No significant differences in weight gain
- adverse effects ([6]; all experimental groups, PM 180 mg/day/kg body wt.): no adverse effects
- conversion of the BSA-Amadori glycation intermediate to BSA-CML [7]: inhibited the conversion of the BSA-Amadori glycation intermediate to BSA-CML
- formation of CML on collagen IV [8]: inhibited the formation of CML on collagen IV
